# Results as given in ChEMBL document CHEMBL1201862, “PubChem BioAssay data set” (2004).
#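 Each compound was tested at five concentrations against cells in 96-well plates for 48 hours. GI50: concentration for 50% inhibition of growth.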 Active and inactive are the calls of the source. Rule as the data show it: active = GI50 up to about 1.1 µM and inactive = higher.
# How the values were obtained:
# Assay in all cases: DTP human tumour cell line panel, 48 h
# UACC-257 = test system: UACC-257
# MDA-N = test system: MDA-N
# ACHN = test system: ACHN
# BT-549 = test system: BT-549
# SK-OV-3 = test system: SK-OV-3
# Malme-3M = test system: Malme-3M
# A549 = test system: A549
# SF-268 = test system: SF-268
# SNB-75 = test system: SNB-75
# RXF 393 = test system: RXF 393
# UACC-62 = test system: UACC-62
# SF-539 = test system: SF-539
# SW-620 = test system: SW-620
# LOX IMVI = test system: LOX IMVI
# MDA-MB-231 = test system: MDA-MB-231
# HOP-92 = test system: HOP-92
# SR = test system: SR
# PC-3 = test system: PC-3
# CCRF-CEM = test system: CCRF-CEM
# OVCAR-5 = test system: OVCAR-5
SMILES,GI50 (UACC-257),GI50 (MDA-N),GI50 (ACHN),GI50 (BT-549),GI50 (SK-OV-3),GI50 (Malme-3M),GI50 (A549),GI50 (SF-268),GI50 (SNB-75),GI50 (RXF 393),GI50 (UACC-62),GI50 (SF-539),GI50 (SW-620),GI50 (LOX IMVI),GI50 (MDA-MB-231),GI50 (HOP-92),GI50 (SR),GI50 (PC-3),GI50 (CCRF-CEM),GI50 (OVCAR-5)
COc1ccc(/C=C/C=C2C(=O)NC(=S)NC2=O)cc1,9.62 µM (inactive),4.07 µM (inactive),5.08 µM (inactive),2.05 µM (inactive),17.7 µM (inactive),3.34 µM (inactive),20.3 µM (inactive),4.68 µM (inactive),17.7 µM (inactive),4.35 µM (inactive),3.07 µM (inactive),4.41 µM (inactive),1.78 µM (inactive),1.89 µM (inactive),2.11 µM (inactive),12.8 µM (inactive),1.35 µM (inactive),12.6 µM (inactive),1.59 µM (inactive),21 µM (inactive)
CNC(=S)N/N=C/c1ccc([N+](=O)[O-])s1,> 10 µM (inactive),> 10 µM (inactive),> 10 µM (inactive),> 10 µM (inactive),> 10 µM (inactive),7.53 µM (inactive),7.38 µM (inactive),> 10 µM (inactive),> 10 µM (inactive),> 10 µM (inactive),> 10 µM (inactive),> 10 µM (inactive),> 10 µM (inactive),> 10 µM (inactive),> 10 µM (inactive),> 10 µM (inactive),4.81 µM (inactive),3.01 µM (inactive),> 10 µM (inactive),> 10 µM (inactive)
CC(C)(C)OC(=O)NCC(=O)NC1CC=CCC1NC(=O)CNC(=O)OC(C)(C)C (stereo not given),> 100 µM (inactive),> 100 µM (inactive),> 100 µM (inactive),> 100 µM (inactive),> 100 µM (inactive),> 100 µM (inactive),> 100 µM (inactive),> 100 µM (inactive),> 100 µM (inactive),> 100 µM (inactive),> 100 µM (inactive),> 100 µM (inactive),> 100 µM (inactive),> 100 µM (inactive),> 100 µM (inactive),> 100 µM (inactive),> 100 µM (inactive),> 100 µM (inactive),> 100 µM (inactive),> 100 µM (inactive)
N#CC(NC12CC3CC(CC(C3)C1)C2)c1ccc2c(c1)OCO2 (stereo not given),> 100 µM (inactive),> 100 µM (inactive),> 100 µM (inactive),> 100 µM (inactive),> 100 µM (inactive),> 100 µM (inactive),> 100 µM (inactive),> 100 µM (inactive),> 100 µM (inactive),> 100 µM (inactive),> 100 µM (inactive),> 100 µM (inactive),> 100 µM (inactive),> 100 µM (inactive),> 100 µM (inactive),89.1 µM (inactive),> 100 µM (inactive),> 100 µM (inactive),> 100 µM (inactive),> 100 µM (inactive)
COc1cc2oc3cc(=O)cc4oc(-c5ccccc5)cc(c2c2c1CCC(c1ccccc1)O2)c43 (stereo not given),26.7 µM (inactive),22 µM (inactive),19.3 µM (inactive),80.5 µM (inactive),35 µM (inactive),67.3 µM (inactive),72.8 µM (inactive),> 100 µM (inactive),79.1 µM (inactive),54.7 µM (inactive),35.1 µM (inactive),24.5 µM (inactive),67.1 µM (inactive),31.9 µM (inactive),22.3 µM (inactive),> 100 µM (inactive),11.1 µM (inactive),47.8 µM (inactive),61 µM (inactive),56 µM (inactive)
Cc1cc(/N=C/c2ccc(C#N)cc2)n(-c2ccccc2)n1,> 100 µM (inactive),37.7 µM (inactive),> 100 µM (inactive),93.3 µM (inactive),51.3 µM (inactive),> 100 µM (inactive),64.9 µM (inactive),48.5 µM (inactive),57 µM (inactive),> 100 µM (inactive),80.4 µM (inactive),99.3 µM (inactive),49.4 µM (inactive),63.4 µM (inactive),> 100 µM (inactive),> 100 µM (inactive),35.5 µM (inactive),89.1 µM (inactive),30.8 µM (inactive),> 100 µM (inactive)
C=C1C(=O)O[C@H]2C3C(=C(C)CC[C@@H]12)C(=O)[C@@H]1OC31C (stereo not given in full),2.24 µM (inactive),1.75 µM (inactive),2.6 µM (inactive),1.95 µM (inactive),15.4 µM (inactive),2.2 µM (inactive),13 µM (inactive),5.19 µM (inactive),2.38 µM (inactive),1.56 µM (inactive),2.04 µM (inactive),2.43 µM (inactive),0.685 µM (active),2.11 µM (inactive),3.94 µM (inactive),2.93 µM (inactive),0.622 µM (active),2.69 µM (inactive),0.318 µM (active),10.4 µM (inactive)
Nc1[nH]c(Nc2ccc(Cl)c(Cl)c2)nc2ncnc1-2,17.5 µM (inactive),17.5 µM (inactive),9.89 µM (inactive),12.9 µM (inactive),15.3 µM (inactive),18.2 µM (inactive),13.9 µM (inactive),11 µM (inactive),8.36 µM (inactive),4.78 µM (inactive),11.9 µM (inactive),12.4 µM (inactive),18.1 µM (inactive),14.8 µM (inactive),14 µM (inactive),16.6 µM (inactive),11 µM (inactive),12 µM (inactive),16.1 µM (inactive),25.5 µM (inactive)
